Values after ≈ are worked out from the molar mass of the structure shown.
Assays:
Format in all cases: cell-based
[1] = test system: HIV-1 IIIB; assay: Inhibition of HIV-1 induced syncytium formation in CEM cells, HIV-1 IIIB (wild type); settings: Human immunodeficiency virus 1, CCRF-CEM, 96 h, day 4 post infection
Source text: (§1) CEM cells were obtained from the American Tissue Cell Culture Collection (Rockville, Md.). HIV-1 (IIIB) was originally obtained from the culture supernatant of persistently HIV-1-infected H9 cells and was provided by R. C. Gallo and M. Popovic (National Cancer Institute, National Institutes of Health, Bethesda, Md.). The selection and characterization of the HIV-1 RT mutant strains were done as follows: HIV-1/100-Ile ("100-Ile") was selected for resistance against TIBO R82150 as described in Balzarini et al, Virology 192: 246-253 (1993); HIV-1/103-Asn ("103-Asn") was selected for resistance against TIBO R82913 as described in Balzarini et al, Virology 192: 246-253 (1993); HIV-1/106-Ala ("106-Ala") was selected for resistance against nevirapine as described in Balzarini et al, J. Virol. 67: 5353-5359 (1993); HIV-1/138-Lys ("138-Lys") was selected for resistance against TSAO-m^3T as described in Balzarini et al, Virology 192: 246-253 (1993) and Balzarini et al, Proc. Nat. Acad. Sci. U.S.A. 90: 6952-6956 (1993); HIV-1/181-Cys ("181-Cys") was selected for resistance against pyridinone L-697,661 as described in Balzarini et al, Virology 192: 246-253 (1993); and HIV-1/188-His ("188-His") was selected for resistance against HEPT as described in Balzarini et al, Mol. Pharmocol. 44: 694-701 (1993). 188-His was then further converted to HIV-1/188-Leu ("188-Leu") upon further passage in cell culture in the absence of the HEPT.
(§2) CEM cells were suspended at ≈300,000 cells per mL of culture medium and infected with approximately 100 CCID50 (CCID50 being the 50% cell culture infective dose) of HIV-1 (IIIB) or one of the HIV-1 RT mutant strains described above. Then 100 μL of the infected cell suspensions was added to 200 μL microtiter plate wells containing 100 μL of appropriate serial (5-fold) dilutions of the test compounds. The inhibitory effect of the test compounds on HIV-1 induced syncytium formation in CEM cells was examined microscopically on day 4 post infection. The 50% effective concentration (EC50) was defined as the test compound concentration that inhibits syncytium formation in the HIV-1 infected cell cultures by 50%.

[2] = test system: HIV-1/138-Lys; assay: Inhibition of HIV-1 induced syncytium formation in CEM cells, RT mutant 138-Lys; settings: Human immunodeficiency virus 1, CCRF-CEM, 96 h, read-out: EC50 138-Lys
Source text: as §1, §2

[3] = test system: HIV-1/106-Ala; assay: Inhibition of HIV-1 induced syncytium formation in CEM cells, RT mutant 106-Ala; settings: Human immunodeficiency virus 1, CCRF-CEM, 96 h, read-out: EC50 106-Ala
Source text: as §1
as §2, with “The 50% effective concentration (EC50) was defined as the test compound concentration that inhibits syncytium formation in the HIV-1 infected cell cultures by 50%.” left out

[4] = test system: HIV-1/181-Cys; assay: Inhibition of HIV-1 induced syncytium formation in CEM cells, RT mutant 181-Cys; settings: Human immunodeficiency virus 1, CCRF-CEM, 96 h, read-out: EC50 181-Cys
Source text: as §1
as §2, with “The 50% effective concentration (EC50) was defined as the test compound concentration that inhibits syncytium formation in the HIV-1 infected cell cultures by 50%.” left out

[5] = test system: HIV-1/103-Asn; assay: Inhibition of HIV-1 induced syncytium formation in CEM cells, RT mutant 103-Asn; settings: Human immunodeficiency virus 1, CCRF-CEM, 96 h, read-out: EC50 103-Asn
Source text: as §1, with “188-His was then further converted to HIV-1/188-Leu ("188-Leu") upon further passage in cell culture in the absence of the HEPT.” left out

[6] = test system: HIV-1/100-Ile; assay: Inhibition of HIV-1 induced syncytium formation in CEM cells, RT mutant 100-Ile; settings: Human immunodeficiency virus 1, CCRF-CEM, 96 h, read-out: EC50 100-Ile
Source text: as §1, with “188-His was then further converted to HIV-1/188-Leu ("188-Leu") upon further passage in cell culture in the absence of the HEPT.” left out

[7] = test system: HIV-1/188-Leu; assay: Inhibition of HIV-1 induced syncytium formation in CEM cells, RT mutant 188-Leu; settings: Human immunodeficiency virus 1, CCRF-CEM, 96 h, read-out: EC50 188-Leu
Source text: as §1, with “188-His was then further converted to HIV-1/188-Leu ("188-Leu") upon further passage in cell culture in the absence of the HEPT.” left out

SMILES	EC50 [1]	EC50 [2]	EC50 [3]	EC50 [4]	EC50 [5]	EC50 [6]	EC50 [7]
Cc1occc1C(=O)Nc1ccc(Cl)c(C=NN(C)C)c1 [Compound 1]	0.225 µg/mL (≈ 0.736 µM)	1.6 µg/mL (≈ 5.23 µM)	–	–	–	–	–
Cc1occc1C(=S)Nc1ccc(Cl)c(C=NN(C)C)c1 [Compound 2]	0.008 µg/mL (≈ 0.0249 µM)	0.04 µg/mL (≈ 0.124 µM)	0.065 µg/mL (≈ 0.202 µM)	0.13 µg/mL (≈ 0.404 µM)	0.65 µg/mL (≈ 2.02 µM)	0.14 µg/mL (≈ 0.435 µM)	–
Cc1occc1C(=O)Nc1ccc(Cl)c(C=NN2CCCC2)c1 [Compound 3]	0.325 µg/mL (≈ 0.979 µM)	1.6 µg/mL (≈ 4.82 µM)	1.3 µg/mL (≈ 3.92 µM)	1 µg/mL (≈ 3.01 µM)	–	–	–
Cc1occc1C(=S)Nc1ccc(Cl)c(C=NN2CCCC2)c1 [Compound 4]	0.015 µg/mL (≈ 0.0431 µM)	0.08 µg/mL (≈ 0.23 µM)	0.1 µg/mL (≈ 0.287 µM)	0.1 µg/mL (≈ 0.287 µM)	0.34 µg/mL (≈ 0.977 µM)	0.33 µg/mL (≈ 0.949 µM)	4.5 µg/mL (≈ 12.9 µM)
Cc1occc1C(=S)Nc1ccc(Cl)c(C=NN2CCOCC2)c1 [Compound 5, N-[4-chloro-3-[(4-morpholinylimino)methyl]phenyl]-2-methyl-3-furancarbothioamide]	0.13 µg/mL (≈ 0.357 µM)	–	–	–	–	–	–
